In article PMC3681751, “Identification of a Novel Antimicrobial Peptide from Human Hepatitis B Virus Core Protein Arginine-Rich Domain (ARD)” (PLoS Pathogens, 2013):
Where two headings read alike, the source gives them in different places. Residues, ends and D or L forms follow the SMILES beside them.

Legend:
ICR mice = experiment: Acute in vivo toxicity; parameters: species or system mouse; settings: three-week old male ICR mice, 7 days, n = 5
Description: Three-week old male ICR mice (19 to 21 g) were purchased from BioLASCO (Taiwan). Overnight culture of bacteria in BHI broth (Difco) was subcultured in fresh BHI broth to log phase. Inoculums were diluted in BHI broth to indicated densities. To test the acute toxicity of ARD peptide in vivo, ICR male mice were inoculated intraperitoneally (i.p.) with 10 and 20 mg/kg HBc147-183 in PBS, respectively. Each group contained 5 mice. After peptide injection, the number of dead mice was recorded daily for 7 days post-injection. To test the antimicrobial activity of the ARD peptide in vivo, all mice were inoculated i.p. with Staphylococcus aureus ATCC 19636 (4×10^6 CFU/mouse) in BHI broth. Peptide HBc147-183 (10 mg/kg) was administered i.p. at 1, 1.5 and 2 hours post-inoculation. PBS (10 ml/kg) control was administered at 1 hour post-inoculation. […] Mortality was monitored daily for 7 days post-inoculation. […] The mice were anesthetized first before transferring to the IVIS imaging system (IVIS spectrum), and luminescence was measured with an exposure time of 1 minutes or less. The image system measured the number of photons and translated the data to false color images that depicted the region of strong luminescence with red, moderate luminescence with yellow and green, and mild luminescence with blue. […] Total flux (RLU) of region of interest (ROI) was quantified by the IVIS imaging software.

Huh 7 cells = experiment: Peptide uptake into mammalian cells; type: cell-based, human; settings: data not shown
S. aureus (ATCC 19636) = type: cell-based, Staphylococcus aureus
In short: (§1)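 Mid-log bacteria at 10^6 CFU/ml in 10 mM sodium phosphate, 50 mM NaCl, pH 7.2, exposed to serially diluted HBc ARD peptides for 3 h at 37 °C without shaking. Mixtures plated on Mueller-Hinton agar overnight to give minimal bactericidal concentration; triplicate tests.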

S. aureus (ATCC 25923) = type: cell-based, Staphylococcus aureus
In short: as §1

S. aureus (ATCC 29213) = type: cell-based, Staphylococcus aureus
In short: as §1

[1] = test system: human red blood cells (hRBCs); experiment: Hemolytic activity; type: cell-based; settings: 10% hRBCs in PBS, 1 h at 37°C, absorbance 405 nm; 100% = 1% Triton X-100; triplicates
Description: The hemolytic activities of peptides were determined by hemolysis against human red blood cells (hRBCs). Human blood was obtained in EDTA-containing tube and was centrifuged at 450 g for 10 min. The pellet was washed three times with PBS buffer, and a solution of 10% hRBCs was prepared. hRBCs solution was mixed with serial dilutions of peptides in PBS buffer, and the reaction mixtures were incubated for 1 h at 37°C. After centrifugation at 450 g for 10 min, the percentage of hemolysis was determined by measuring the absorbance at the wavelength of 405 nm of the supernatant. Blank and 100% hemolysis were determined in PBS buffer and in the presence of 1% Triton X-100, respectively.

[2] = methicillin-resistant strain, 3 h at 37°C in phosphate buffer pH 7.2, triplicate

CC(C)[C@H](NC(=O)[C@@H](NC(=O)[C@@H](N)[C@@H](C)O)C(C)C)C(=O)N[C@@H](CCCNC(=N)N)C(=O)N[C@@H](CCCNC(=N)N)C(=O)N[C@@H](CCCNC(=N)N)C(=O)NCC(=O)N[C@@H](CCCNC(=N)N)C(=O)N[C@@H](CO)C(=O)N1CCC[C@H]1C(=O)N[C@@H](CCCNC(=N)N)C(=O)N[C@@H](CCCNC(=N)N)C(=O)N[C@@H](CCCNC(=N)N)C(=O)N[C@H](C(=O)N1CCC[C@H]1C(=O)N[C@@H](CO)C(=O)N1CCC[C@H]1C(=O)N[C@@H](CCCNC(=N)N)C(=O)N[C@@H](CCCNC(=N)N)C(=O)N[C@@H](CCCNC(=N)N)C(=O)N[C@@H](CCCNC(=N)N)C(=O)N[C@@H](CO)C(=O)N[C@@H](CCC(N)=O)C(=O)N[C@@H](CO)C(=O)N1CCC[C@H]1C(=O)N[C@@H](CCCNC(=N)N)C(=O)N[C@@H](CCCNC(=N)N)C(=O)N[C@@H](CCCNC(=N)N)C(=O)N[C@@H](CCCNC(=N)N)C(=O)N[C@@H](CO)C(=O)N[C@@H](CCC(N)=O)C(=O)N[C@@H](CO)C(=O)N[C@@H](CCCNC(=N)N)C(=O)N[C@@H](CCC(=O)O)C(=O)N[C@@H](CO)C(=O)N[C@@H](CCC(N)=O)C(=O)N[C@@H](CS)C(=O)O)[C@@H](C)O [HBc147-183] (H-TVVRRRGRSPRRRTPSPRRRRSQSPRRRRSQSRESQC-OH; N-terminus and C-terminus assumed)
Survival after peptide injection (in vivo toxicity) (ICR mice; 10 mg/kg i.p.): All mice were alive
Survival after peptide injection (in vivo toxicity) (ICR mice; 20 mg/kg i.p.): All mice were alive
Penetration through the cell membrane (Huh 7 cells): can penetrate through the cell membrane
MBC against S. aureus (S. aureus (ATCC 19636); ATCC 19636, 3 h): around 4 µM
Antimicrobial activity, MBC (S. aureus (ATCC 19636); ATCC 19636, 3 h, pH 7.2): 4 µM
Antimicrobial activity, MBC (S. aureus (ATCC 19636); [2]): 18.36 µg/mL
Antimicrobial activity, MBC (S. aureus (ATCC 25923); ATCC 25923, 3 h, pH 7.2): 4 µM
Antimicrobial activity, MBC (S. aureus (ATCC 25923); [2]): 18.36 µg/mL
Antimicrobial activity, MBC (S. aureus (ATCC 29213); ATCC 29213, 3 h, pH 7.2): 4 µM
Antimicrobial activity, MBC (S. aureus (ATCC 29213); [2]): 18.36 µg/mL
Hemolysis [1]: no detectable hemolysis
